Assay results reported in patent US12539336B2, “Antibody, linkers, payload, conjugates and applications thereof” (GeneQuantum Healthcare (Suzhou) Co., Ltd., priority 2022, dated 2026).

Key:
[1] = system: Trop2-positive cells BxPC-3 and Trop2-negative cells HepG2; test: Bystander killing in BxPC-3/HepG2 co-culture assay (BxPC-3:HepG2=4:1); assay type: cell-based, human; details: effect example 1.1, conclusion
Experimental: (§1) A negative control group was set: 3 mL of 45% RPMI-1640+45% DMEM+10% FBS medium was added to each well. After the treatment, the cells were moved to the incubator and incubated for 96 h. After the incubation, cells were digested, and washed once with 1×PBS, then transferred to a flow tube, and centrifuged at 2000 rpm for 3 min. The supernatant was then discarded, and the cell amount and cell viability were detected. […] The cells were washed with 1×PBS, the supernatant was discarded after centrifugation, 200 μL of 5 μg/mL human IgG Fc antibody was added, and the resulting cells were continued to incubate at 4° C. for 30 min after mixing. Finally, the cells were washed with 1×PBS, the supernatant was discarded after centrifugation, and the cells were resuspended in PBS, detected by flow cytometry and analyzed by FlowJo software.

[2] = system: Trop2-positive cells BxPC-3 and Trop2-negative HepG2 cells; test: Bystander killing in BxPC-3/HepG2 co-culture assay (BxPC-3:HepG2=2:1); assay type: cell-based, human; details: effect example 1.3, conclusion
Experimental: as §1

Substance: DS1062a
- bystander killing effect [1]: had bystander killing effects
- bystander killing effect [2]: had bystander killing effects
